Experimental data: ChEMBL document CHEMBL4308841, “Synthesis, in vitro antiproliferative activity, and kinase inhibitory effects of pyrazole-containing diarylureas and diarylamides” (Eur J Med Chem, 2018)

Tests used:
HCT-15 [1] = assay: Growth inhibition of human HCT15 cells assessed as cell growth at 0.01 uM incubated for 48 hrs by sulforhodamine B assay relative to control; format: functional; conditions: HCT-15, 48 h, read-out: Activity
NCI/ADR-RES [2] = assay: Growth inhibition of human NCI/ADR-RES cells incubated for 48 hrs by sulforhodamine B assay; format: functional, cell-based
CAKI-1 [3] = assay: Growth inhibition of human Caki1 cells assessed as cell growth at 100 uM incubated for 48 hrs by sulforhodamine B assay relative to control; format: functional; conditions: CAKI-1, 48 h, read-out: Activity
Malme-3M = assay: Growth inhibition of human MALME-3M cells incubated for 48 hrs by sulforhodamine B assay; format: functional, cell-based
A498 = assay: Growth inhibition of human A498 cells assessed as cell growth at 0.1 uM incubated for 48 hrs by sulforhodamine B assay relative to control; format: functional; conditions: A498, 48 h, read-out: Activity
M14 = assay: Growth inhibition of human M14 cells assessed as cell growth at 1 uM incubated for 48 hrs by sulforhodamine B assay relative to control; format: functional; conditions: M14, 48 h, read-out: Activity
BT-549 [4] = assay: Growth inhibition of human BT549 cells assessed as cell growth at 1 uM incubated for 48 hrs by sulforhodamine B assay relative to control; format: functional; conditions: BT-549, 48 h, read-out: Activity
SR = assay: Growth inhibition of human SR cells assessed as cell growth at 0.1 uM incubated for 48 hrs by sulforhodamine B assay relative to control; format: functional; conditions: read-out: Activity
CAKI-1 [5] = assay: Growth inhibition of human Caki1 cells assessed as cell growth at 0.01 uM incubated for 48 hrs by sulforhodamine B assay relative to control; format: functional; conditions: CAKI-1, 48 h, read-out: Activity
T47D = assay: Growth inhibition of human T47D cells assessed as cell growth at 100 uM incubated for 48 hrs by sulforhodamine B assay relative to control; format: functional; conditions: read-out: Activity
NCI-H460 [6] = assay: Growth inhibition of human NCI-H460 cells assessed as cell growth at 1 uM incubated for 48 hrs by sulforhodamine B assay relative to control; format: functional; conditions: NCI-H460, 48 h, read-out: Activity
U-251 [7] = assay: Growth inhibition of human U251 cells assessed as cell growth at 1 uM incubated for 48 hrs by sulforhodamine B assay relative to control; format: functional; conditions: U-251, 48 h, read-out: Activity
NCI-H522 = assay: Growth inhibition of human NCI-H522 cells incubated for 48 hrs by sulforhodamine B assay; format: functional, cell-based; conditions: NCI-H522, 48 h
SK-MEL-28 = assay: Growth inhibition of human SK-MEL-28 cells assessed as cell growth at 0.01 uM incubated for 48 hrs by sulforhodamine B assay relative to control; format: functional; conditions: SK-MEL-28, 48 h, read-out: Activity
KM12 = assay: Growth inhibition of human KM12 cells assessed as cell growth at 100 uM incubated for 48 hrs by sulforhodamine B assay relative to control; format: functional; conditions: KM12, 48 h, read-out: Activity
MDA-MB-435 = assay: Growth inhibition of human MDA-MB-435 cells assessed as cell growth at 0.1 uM incubated for 48 hrs by sulforhodamine B assay relative to control; format: functional; conditions: MDA-MB-435, 48 h, read-out: Activity
HCT-116 = assay: Growth inhibition of human HCT116 cells assessed as cell growth at 1 uM incubated for 48 hrs by sulforhodamine B assay relative to control; format: functional; conditions: HCT-116, 48 h, read-out: Activity
MOLT-4 = assay: Growth inhibition of human MOLT4 cells assessed as cell growth at 0.1 uM incubated for 48 hrs by sulforhodamine B assay relative to control; format: functional; conditions: MOLT-4, 48 h, read-out: Activity
OVCAR-8 = assay: Growth inhibition of human OVCAR8 cells incubated for 48 hrs by sulforhodamine B assay; format: functional, cell-based; conditions: OVCAR-8, 48 h
Hs-578T = assay: Growth inhibition of human Hs578T cells assessed as cell growth at 0.01 uM incubated for 48 hrs by sulforhodamine B assay relative to control; format: functional; conditions: read-out: Activity
NCI-H460 [8] = assay: Growth inhibition of human NCI-H460 cells assessed as cell growth at 0.01 uM incubated for 48 hrs by sulforhodamine B assay relative to control; format: functional; conditions: NCI-H460, 48 h, read-out: Activity
NCI/ADR-RES [9] = assay: Growth inhibition of human NCI/ADR-RES cells assessed as cell growth at 0.01 uM incubated for 48 hrs by sulforhodamine B assay relative to control; format: functional; conditions: read-out: Activity
U-251 [10] = assay: Growth inhibition of human U251 cells assessed as cell growth at 0.01 uM incubated for 48 hrs by sulforhodamine B assay relative to control; format: functional; conditions: U-251, 48 h, read-out: Activity
SW-620 [11] = assay: Growth inhibition of human SW620 cells assessed as cell growth at 1 uM incubated for 48 hrs by sulforhodamine B assay relative to control; format: functional; conditions: SW-620, 48 h, read-out: Activity
RPMI-8226 = assay: Growth inhibition of human RPMI8226 cells incubated for 48 hrs by sulforhodamine B assay; format: functional, cell-based; conditions: RPMI-8226, 48 h
ACHN = assay: Growth inhibition of human ACHN cells assessed as cell growth at 100 uM incubated for 48 hrs by sulforhodamine B assay relative to control; format: functional; conditions: read-out: Activity
UO-31 = assay: Growth inhibition of human UO31 cells assessed as cell growth at 0.01 uM incubated for 48 hrs by sulforhodamine B assay relative to control; format: functional; conditions: UO-31, 48 h, read-out: Activity
BT-549 [12] = assay: Growth inhibition of human BT549 cells assessed as cell growth at 100 uM incubated for 48 hrs by sulforhodamine B assay relative to control; format: functional; conditions: BT-549, 48 h, read-out: Activity
HCT-15 [13] = assay: Growth inhibition of human HCT15 cells assessed as cell growth at 1 uM incubated for 48 hrs by sulforhodamine B assay relative to control; format: functional; conditions: HCT-15, 48 h, read-out: Activity
SW-620 [14] = assay: Growth inhibition of human SW620 cells assessed as cell growth at 100 uM incubated for 48 hrs by sulforhodamine B assay relative to control; format: functional; conditions: SW-620, 48 h, read-out: Activity
SF-539 = assay: Growth inhibition of human SF539 cells assessed as cell growth at 0.1 uM incubated for 48 hrs by sulforhodamine B assay relative to control; format: functional; conditions: SF-539, 48 h, read-out: Activity
[15] = read-out: LC50 (the source's name)
[16] = read-out: pLC50 (the source's name) (converted)

COc1cc(Cl)cc(-c2nn(-c3cccc(NC(=O)Nc4ccc(Cl)c(Cl)c4)c3)cc2-c2ccncc2)c1
growth at 0.01 µM (HCT-15 [1]): 93% | GI50 (NCI/ADR-RES [2]; read-out: GI50): 2.34 µM | CC50 (NCI/ADR-RES [2]; [15]): > 100 µM | TGI (NCI/ADR-RES [2]; read-out: TGI): 24.9 µM | GI50 (NCI/ADR-RES [2]; read-out: pGI50 (converted)): 2.34 µM | CC50 (NCI/ADR-RES [2]; [16]): > 100 µM | TGI (NCI/ADR-RES [2]; read-out: pTGI (converted)): 25.1 µM | growth at 100 µM (CAKI-1 [3]): -8% | GI50 (Malme-3M; read-out: GI50): 2.06 µM | CC50 (Malme-3M; [15]): > 100 µM | TGI (Malme-3M; read-out: TGI): 75.5 µM | GI50 (Malme-3M; read-out: pGI50 (converted)): 2.04 µM | CC50 (Malme-3M; [16]): > 100 µM | TGI (Malme-3M; read-out: pTGI (converted)): 7.94 µM | growth at 0.1 µM (A498): 58% | growth at 1 µM (M14): 82% | growth at 1 µM (BT-549 [4]): 92% | growth at 0.1 µM (SR): 51% | growth at 0.01 µM (CAKI-1 [5]): 96% | growth at 100 µM (T47D): -9% | growth at 1 µM (NCI-H460 [6]): 77% | growth at 1 µM (U-251 [7]): 71% | GI50 (NCI-H522; read-out: GI50): 1.29 µM | CC50 (NCI-H522; [15]): > 100 µM | TGI (NCI-H522; read-out: TGI): 44.8 µM | GI50 (NCI-H522; read-out: pGI50 (converted)): 1.29 µM | CC50 (NCI-H522; [16]): > 100 µM | TGI (NCI-H522; read-out: pTGI (converted)): 4.47 µM | growth at 0.01 µM (SK-MEL-28): 101% | growth at 100 µM (KM12): -17% | growth at 0.1 µM (MDA-MB-435): 99% | growth at 1 µM (HCT-116): 71% | growth at 0.1 µM (MOLT-4): 88% | GI50 (OVCAR-8; read-out: GI50): 2.3 µM | CC50 (OVCAR-8; [15]): > 100 µM | TGI (OVCAR-8; read-out: TGI): 11.2 µM | GI50 (OVCAR-8; read-out: pGI50 (converted)): 2.29 µM | CC50 (OVCAR-8; [16]): > 100 µM | TGI (OVCAR-8; read-out: pTGI (converted)): 11.2 µM | growth at 0.01 µM (Hs-578T): 93% | growth at 0.01 µM (NCI-H460 [8]): 100% | growth at 0.01 µM (NCI/ADR-RES [9]): 97% | growth at 0.01 µM (U-251 [10]): 95% | growth at 1 µM (SW-620 [11]): 93% | IC50 (RPMI-8226): 0.65 µM | GI50 (RPMI-8226; read-out: GI50): 0.652 µM | CC50 (RPMI-8226; [15]): > 100 µM | TGI (RPMI-8226; read-out: TGI): 33.7 µM | CC50 (RPMI-8226; [16]): > 100 µM | growth at 100 µM (ACHN): 6% | growth at 0.01 µM (UO-31): 89% | growth at 100 µM (BT-549 [12]): -15% | growth at 1 µM (HCT-15 [13]): 77% | growth at 100 µM (SW-620 [14]): 7% | growth at 0.1 µM (SF-539): 92%

O=C(Nc1cccc(-n2cc(-c3ccncc3)c(-c3cc(O)cc(Cl)c3)n2)c1)c1ccc(N2CCOCC2)c(C(F)(F)F)c1
growth at 0.01 µM (HCT-15 [1]): 91% | GI50 (NCI/ADR-RES [2]; read-out: GI50): 45.9 µM | CC50 (NCI/ADR-RES [2]; [15]): > 100 µM | TGI (NCI/ADR-RES [2]; read-out: TGI): > 100 µM | GI50 (NCI/ADR-RES [2]; read-out: pGI50 (converted)): 4.57 µM | CC50 (NCI/ADR-RES [2]; [16]): > 100 µM | TGI (NCI/ADR-RES [2]; read-out: pTGI (converted)): > 100 µM | growth at 100 µM (CAKI-1 [3]): -32% | GI50 (Malme-3M; read-out: GI50): 1.38 µM | CC50 (Malme-3M; [15]): > 100 µM | TGI (Malme-3M; read-out: TGI): 51.9 µM | GI50 (Malme-3M; read-out: pGI50 (converted)): 1.38 µM | CC50 (Malme-3M; [16]): > 100 µM | TGI (Malme-3M; read-out: pTGI (converted)): 5.25 µM | growth at 0.1 µM (A498): 85% | growth at 1 µM (M14): 45% | growth at 1 µM (BT-549 [4]): 75% | growth at 0.1 µM (SR): 98% | growth at 0.01 µM (CAKI-1 [5]): 98% | growth at 100 µM (T47D): 7% | growth at 1 µM (NCI-H460 [6]): 44% | growth at 1 µM (U-251 [7]): 51% | GI50 (NCI-H522; read-out: GI50): 0.934 µM | CC50 (NCI-H522; [15]): > 100 µM | TGI (NCI-H522; read-out: TGI): 12.1 µM | GI50 (NCI-H522; read-out: pGI50 (converted)): 0.933 µM | CC50 (NCI-H522; [16]): > 100 µM | TGI (NCI-H522; read-out: pTGI (converted)): 12 µM | growth at 0.01 µM (SK-MEL-28): 99% | growth at 100 µM (KM12): 4% | growth at 0.1 µM (MDA-MB-435): 69% | growth at 1 µM (HCT-116): 58% | growth at 0.1 µM (MOLT-4): 97% | GI50 (OVCAR-8; read-out: GI50): 15.4 µM | CC50 (OVCAR-8; [15]): > 100 µM | TGI (OVCAR-8; read-out: TGI): > 100 µM | GI50 (OVCAR-8; read-out: pGI50 (converted)): 1.62 µM | CC50 (OVCAR-8; [16]): > 100 µM | TGI (OVCAR-8; read-out: pTGI (converted)): > 100 µM | growth at 0.01 µM (Hs-578T): 96% | growth at 0.01 µM (NCI-H460 [8]): 104% | growth at 0.01 µM (NCI/ADR-RES [9]): 101% | growth at 0.01 µM (U-251 [10]): 97% | growth at 1 µM (SW-620 [11]): 107% | IC50 (RPMI-8226): 0.4 µM | GI50 (RPMI-8226; read-out: GI50): 0.396 µM | CC50 (RPMI-8226; [15]): > 100 µM | TGI (RPMI-8226; read-out: TGI): 23.1 µM | GI50 (RPMI-8226; read-out: pGI50 (converted)): 0.398 µM | CC50 (RPMI-8226; [16]): > 100 µM | TGI (RPMI-8226; read-out: pTGI (converted)): 2.29 µM | growth at 100 µM (ACHN): -20% | growth at 0.01 µM (UO-31): 85% | growth at 100 µM (BT-549 [12]): 17% | growth at 1 µM (HCT-15 [13]): 35% | growth at 100 µM (SW-620 [14]): -19% | growth at 0.1 µM (SF-539): 93%
